Laboratory results taken from patent publication US11230538B2, “Herbicides” (SYNGENTA PARTICIPATIONS AG, priority 2016, dated 2022).

What was measured:
Assay type in all cases: in vivo
[1] = system: Alopecurus myosuroides (ALOMY); assay: B1 Pre-emergence herbicidal activity; design: key: 5=total damage to plant; 0=no damage to plant; details: pre-emergence application, rate 1000 g/ha, evaluated after 13 days
Procedure: (§1) Seeds of a variety of test species were sown in standard soil in pots: Triticum aestivium (TRZAW), Avena fatua (AVEFA), Alopecurus myosuroides (ALOMY), Echinochloa crus-galli (ECHCG), Lolium perenne (LOLPE), Zea Mays (ZEAMX), Abutilon theophrasti (ABUTH), Amaranthus retroflexus (AMARE) and Setaria fabenr (SETFA). After cultivation for one day (pre-emergence) under controlled conditions in a glasshouse (at 24/16° C., day/night; 14 hours light; 65% humidity), the plants were sprayed with an aqueous spray solution derived from the formulation of the technical active ingredient in acetone I water (50:50) solution containing 0.5% Tween 20 (polyoxyethelyene sorbitan monolaurate, CAS RN 9005-64-5). The test plants were then grown in a glasshouse under controlled conditions (at 24/16° C., day/night; 14 hours light; 65% humidity) and watered twice daily. After 13 days, the test was evaluated (5=total damage to plant; 0=no damage to plant).

Avena fatua (AVEFA) [2] = assay: B1 Pre-emergence herbicidal activity; design: key: 5=total damage to plant; 0=no damage to plant; details: pre-emergence application, rate 1000 g/ha, evaluated after 13 days
Procedure: as §1

[3] = system: Triticum aestivium (TRZAW); assay: B1 Pre-emergence herbicidal activity; design: key: 5=total damage to plant; 0=no damage to plant; details: pre-emergence application, rate 1000 g/ha, evaluated after 13 days
Procedure: as §1

[4] = system: Echinochloa crus-galli (ECHCG); assay: B1 Pre-emergence herbicidal activity; design: key to Pre-emergence herbicidal activity, ECHCG (damage score 0-5): 5=total damage to plant; 0=no damage to plant; details: pre-emergence application, rate 1000 g/ha, evaluated after 13 days
Procedure: as §1

Lolium perenne (LOLPE) [5] = assay: B1 Pre-emergence herbicidal activity; design: key to Pre-emergence herbicidal activity, LOLPE (damage score 0-5): 5=total damage to plant; 0=no damage to plant; details: pre-emergence application, rate 1000 g/ha, evaluated after 13 days
Procedure: as §1

Setaria fabenr (SETFA) = assay: B1 Pre-emergence herbicidal activity; design: key to Pre-emergence herbicidal activity, SETFA (damage score 0-5): 5=total damage to plant; 0=no damage to plant; details: pre-emergence application, rate 1000 g/ha, evaluated after 13 days
Procedure: as §1

Avena fatua (AVEFA) [6] = assay: B2 Post-emergence herbicidal activity; details: post-emergence application, rate 1000 g/ha, evaluated after 13 days
Procedure: (§2) Seeds of a variety of test species were sown in standard soil in pots: Triticum aestivium (TRZAW), Avena fatua (AVEFA), Alopecurus myosuroides (ALOMY), Echinochloa crus-galli (ECHCG), Lolium perenne (LOLPE), Zea Mays (ZEAMX), Abutilon theophrasti (ABUTH), Amaranthus retroflexus (AMARE) and Setaria fabenri (SETFA). After 8 days cultivation (post-emergence) under controlled conditions in a glasshouse (at 24/16° C., day/night; 14 hours light; 65% humidity), the plants were sprayed with an aqueous spray solution derived from the formulation of the technical active ingredient in acetone I water (50:50) solution containing 0.5% Tween 20 (polyoxyethelyene sorbitan monolaurate, CAS RN 9005-64-5). The test plants were then grown in a glasshouse under controlled conditions (at 24/16° C., day/night; 14 hours light; 65% humidity) and watered twice daily. After 13 days, the test was evaluated (5=total damage to plant; 0=no damage to plant).

[7] = system: Echinochloa crus-galli (ECHCG); assay: B2 Post-emergence herbicidal activity; design: key to Post-emergence herbicidal activity, ECHCG (damage score 0-5): 5=total damage to plant; 0=no damage to plant; details: post-emergence application, rate 1000 g/ha, evaluated after 13 days
Procedure: as §2

Lolium perenne (LOLPE) [8] = assay: B2 Post-emergence herbicidal activity; details: post-emergence application, rate 1000 g/ha, evaluated after 13 days
Procedure: as §2

[9] = system: Alopecurus myosuroides (ALOMY); assay: B2 Post-emergence herbicidal activity; design: key: 5=total damage to plant; 0=no damage to plant; details: post-emergence application, rate 1000 g/ha, evaluated after 13 days
Procedure: as §2

Setaria fabenri (SETFA) = assay: B2 Post-emergence herbicidal activity; design: key: 5=total damage to plant; 0=no damage to plant; details: post-emergence application, rate 1000 g/ha, evaluated after 13 days
Procedure: as §2

[10] = system: Triticum aestivium (TRZAW); assay: B2 Post-emergence herbicidal activity; design: key: 5=total damage to plant; 0=no damage to plant; details: post-emergence application, rate 1000 g/ha, evaluated after 13 days
Procedure: as §2

Structure (SMILES)	Pre-emergence herbicidal activity, ALOMY (damage score 0-5) [1]	Pre-emergence herbicidal activity, AVEFA (damage score 0-5) (Avena fatua (AVEFA) [2])	Pre-emergence herbicidal activity, TRAZW (damage score 0-5) [3]	Pre-emergence herbicidal activity, ECHCG (damage score 0-5) [4]	Pre-emergence herbicidal activity, LOLPE (damage score 0-5) (Lolium perenne (LOLPE) [5])	Pre-emergence herbicidal activity, SETFA (damage score 0-5) (Setaria fabenr (SETFA))	Post-emergence herbicidal activity, AVEFA (damage score 0-5) (Avena fatua (AVEFA) [6])	Post-emergence herbicidal activity, ECHCG (damage score 0-5) [7]	Post-emergence herbicidal activity, LOLPE (damage score 0-5) (Lolium perenne (LOLPE) [8])	Post-emergence herbicidal activity, ALOMY (damage score 0-5) [9]	Post-emergence herbicidal activity, SETFA (damage score 0-5) (Setaria fabenri (SETFA))	Post-emergence herbicidal activity, TRAZW (damage score 0-5) [10]
COCCN(C(=O)C(C)C)c1ccc(-c2cncc(F)c2)nc1C(F)(F)F [Compound C85]	0	0	0	2	0	2	2	4	1	0	4	1
O=C(Nc1ccc(-c2cncnc2)nc1C(F)(F)F)C(Cl)Cl [Compound C65]	0	3	0	4	2	3	4	5	3	0	5	0
O=C(CC1CCCCC1)Nc1ccc(-c2cncc(F)c2)nc1C(F)(F)F [Compound C19]	0	2	0	3	0	5	3	4	1	0		0
O=C(Nc1ccc(-c2cncc(F)c2)nc1C(F)(F)F)c1ccccc1 [Compound C14]	2	1	0	5	2	4	4	5	4	1	5	1
O=C(Nc1ccc(-c2cncnc2)nc1C(F)(F)F)c1ccccc1 [Compound C17]	0	3	0	4	1	5	3	5	2	0		0
CCC(=O)N(C)c1ccc(-c2cncc(F)c2)nc1C(F)(F)F [Compound C15, N-[6-(5-fluoro-3-pyridyl)-2-(trifluoromethyl)-3-pyridyl]-N-methyl-propanamide]	0	0	0	5	1	5	3	5	3	1	5	1
O=C(CCl)Nc1ccc(-c2cncc(F)c2)nc1C(F)(F)F [Compound C35]	0	1	0	4	1	4	3	5	2	0	5	0
CCC(=O)Nc1ccc(-c2cncnc2)nc1C#N [Compound C116]	0	1		3	0	5	2	4	1	0	5	0
CCCC(=O)Nc1ccc(-c2cncc(F)c2)nc1C(F)(F)F [Compound C22]	0	2	0	4	1	5	3	4	2	0		0
O=C(Nc1ccc(-c2cncc(F)c2)nc1C(F)(F)F)C1CCC1 [Compound C21]	0	2	0	4	1	5	3	5	2	0		0
O=C(Nc1ccc(-c2cncc(F)c2)nc1C(F)(F)F)C1CCCCC1 [Compound C20]	0	2	0	4	0	5	3	4	2	0		0
